Our source for the cytotoxicity values is ChEMBL document CHEMBL3507680, “University of Dundee, Gates Library screen for HepG2 cell viability”.

The data set can be described thus: Human HepG2 cell viability assay in 384 well format. The class given is toxicity, cell-based. The arrangement: dose 125 nL, time 70.5 hour; cytotoxicity at 70.5 h: concentration not given beside the values. To be noted: HepG2 cells, read-out: Inhibition.

With `Cn1cc(-c2cc(-c3cnn(C)c3)n(CC(=O)NC3CC3)n2)cn1`, the cytotoxicity at 70.5 h is -20.4%. Consider `CCc1nnc(SCc2nonc2C)n1C`, for which the cytotoxicity at 70.5 h was -11.2%. Regarding `Cn1nc(C(=O)N2CCOCC2)cc1C(=O)Nc1c(Cl)cccc1Cl`, the cytotoxicity at 70.5 h was -2.69%. Under `Cn1cc(NC(=O)c2cc3c(s2)CCCC3)cn1` stands -0.0582%; under `O=C(NC1CCCC1)c1cnn2c(-c3ccco3)ccnc12`, -8.37%; under `Cc1nn(CCNC(=O)c2cc(C3CC3)[nH]n2)c(C)c1Cl`, 3.19%.

For `Cc1c(S(=O)(=O)NCC(C)Cn2cc(Cl)cn2)cnn1C` (stereo unspecified), the cytotoxicity at 70.5 h came out at 1.36%. As to `Cc1nn(C)cc1S(=O)(=O)N(CCc1ccccc1)Cc1ccn(C)n1`, the cytotoxicity at 70.5 h was -4.26%. Next, `CCn1cc(S(=O)(=O)N(CCc2ccccc2)Cc2ccn(C)n2)cn1`: -11.1%; `O=C(Cn1ccc(C(=O)O)n1)Nc1c(Cl)cccc1Cl`: -3.45%. In the case of `COc1ccc2nc(NC(=O)c3c(C(=O)O)cnn3C)sc2c1`, the cytotoxicity at 70.5 h is -8.88%.

In the case of `CCn1ccc(-c2cc(C(=O)O)n3ncc(Cl)c3n2)n1`, the cytotoxicity at 70.5 h is -10.2%. In the case of `CCn1ccc(-c2cc(C(=O)O)n3nc(C(F)(F)F)c(Br)c3n2)n1`, the cytotoxicity at 70.5 h is -3.3%.

For `CCn1ncc2c(C(F)F)cc(-c3ccn(C)n3)nc21`, the cytotoxicity at 70.5 h was -7.69%.

Turning to `Cc1nn(C)cc1-c1cc(C(F)F)nc(NC2CCCCC2)n1`, the cytotoxicity at 70.5 h was -11.8%. For the compound `O=C(NCC(F)F)c1cc(-c2ccccc2)nc2ncnn12`, the cytotoxicity at 70.5 h is -1.07%. As for `CCOc1ccc2oc(-c3cnn(C)c3C)c(O)c(=O)c2c1`, the cytotoxicity at 70.5 h was -3.56%.

Take `Nc1no[n+]([O-])c1C(=O)NCc1cccnc1`: the cytotoxicity at 70.5 h is -0.714%. Consider `Nc1no[n+]([O-])c1C(=O)NCc1ccccn1`, for which the cytotoxicity at 70.5 h was -13.7%. Next, `N#Cc1cn[nH]c1NCc1cc(Br)ccc1O`: -9.76%; `N#Cc1c[nH]nc1NCc1ccc2c(c1)OCO2`: -10.8%.

Regarding `O=C(Cn1cc(I)cn1)N1CCCCCC1`, the cytotoxicity at 70.5 h was -3.07%. `N#Cc1cn[nH]c1NCc1cc(I)cc(I)c1O`: the cytotoxicity at 70.5 h is -9.83%. Next, `CCOC(=O)Cn1ccc(NC(=O)Cc2ccccc2F)n1`: -18.1%; `NC(=O)c1c[nH]nc1NCc1ccc2c(c1)OCO2`: -18.7%; `COc1cc(NCc2ccc(Cl)cc2)c(-c2nn[nH]n2)cc1OC`: -0.792%. As to `COc1cc(NCc2ccncc2)c(-c2nn[nH]n2)cc1OC`, the cytotoxicity at 70.5 h was -1.7%. As to `COc1ccc(-c2cc(C3(O)CCN(C)CC3)on2)cc1`, the cytotoxicity at 70.5 h is -0.517%.

For `Fc1ccccc1-c1nnn(CCCc2nn[nH]n2)n1`, the cytotoxicity at 70.5 h is -5.54%. On to `Clc1cccc(-n2cnnn2)c1N1CCCC1`, for which the cytotoxicity at 70.5 h was determined as 3.81%. Under `CC(C)=CCCC(C)(O)c1cc(C(N)=O)no1` (stereo unspecified) stands -9.16%. Consider `COC(=O)C1=NOC(Cc2cc(OC)c3c(c2)OCO3)C1` (stereo unspecified), for which the cytotoxicity at 70.5 h is -20.2%. Under `COc1c(Br)c(CC2CC(CO)=NO2)c(Br)c2c1OCO2` (stereo unspecified) stands -7.56%; under `O=C1CC(c2cccnc2)c2c(sc3c2CCCC3)N1` (stereo unspecified), -3.62%. With `O=C1CC(c2ccncc2)c2c(sc3c2CCCC3)N1` (stereo unspecified), the cytotoxicity at 70.5 h was -13.1%. In the case of `CCOC(=O)c1cc(C(C)(O)CCC=C(C)C)on1` (stereo unspecified), the cytotoxicity at 70.5 h is -9.61%. Under `CCOC(=O)C1=NOC(Cc2cc(OC)c3c(c2)OCO3)C1` (stereo unspecified) stands 18.8%; under `O=C1CC(c2ccc(C(=O)O)cc2)c2c(sc3c2CCCC3)N1` (stereo unspecified), -9.3%; under `COc1cc(C2SCC(=O)Nc3[nH]ncc32)cc2c1OCO2` (stereo unspecified), -10.8%. Next, `N#CCC1CC(c2ccc(F)cc2)=NO1` (stereo unspecified): -10%. As to `CCn1[nH]c(C)c2c(C(F)(F)C(F)(F)F)cc(=O)nc1-2`, the cytotoxicity at 70.5 h was -1.83%.
